Reference: patent US20250326771A1, “PIPERAZINE DERIVATIVES USEFUL IN HIV THERAPY” (VIIV HEALTHCARE COMPANY, priority 2022, published 2025)

Key:
cIAP1-BIR2 = cIAP1-BIR2 (Homo sapiens (Human), UniProt Q13490); assay: BIR binding assay (FRET competition), cIAP1 BIR2
Outline: (§1)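 615/665 nm FRET ratio. Compound, His-domain and 200 nM AF647-SMAC peptide incubated 60 min, then 2 nM Eu-W1024 for 30 min. Domains: cIAP1-BIR3 50 nM; XIAP-BIR3 100 nM; cIAP1-BIR2, cIAP2-BIR2 325 nM each. 15-pt 3-fold series; variable-slope IC50.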

XIAP-BIR3 = XIAP-BIR3 (Homo sapiens (Human), UniProt P98170); assay: BIR binding assay (FRET competition), XIAP BIR3
Outline: as §1

cIAP1-BIR3 = cIAP1-BIR3 (Homo sapiens (Human), UniProt Q13490); assay: BIR binding assay (FRET competition), cIAP1 BIR3; settings: for cIAP1 BIR3 vs BIR2 separation window: fold separation (FS) for cIAP1
Outline: as §1

cIAP2-BIR2 = cIAP2-BIR2 (Homo sapiens (Human), UniProt Q13489); assay: BIR binding assay (FRET competition), cIAP2 BIR2
Outline: as §1

[1] = test system: Jurkat HIV-luciferase clones; assay: Jurkat latency reversal assay; assay type: cell-based; settings: Jurkat latency reversal assay potency; for EC50: Homo sapiens, 48 h, read-out: Jurkat pEC50 (converted)
Outline: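 A 1:1:1 mix of three Jurkat clones (C16, 115, N6) carrying integrated luciferase-expressing HIV proviruses, 5,000 cells/well, was exposed to 3-fold, 14-point compound titrations from 10 μM at 0.5% DMSO for 48 h at 37° C. Steady-Glo luminescence was fitted by four-parameter logistic regression to give EC50 and maximal percent activation relative to vehicle.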

cIAP2-BIR3 = cIAP2-BIR3 (Homo sapiens (Human), UniProt Q13489); assay: BIR binding assay (FRET competition), cIAP2 BIR3; settings: for cIAP2 BIR3 vs BIR2 separation window: fold separation (FS) for cIAP2
Chain of cIAP2-BIR3 (Q13489 238-349): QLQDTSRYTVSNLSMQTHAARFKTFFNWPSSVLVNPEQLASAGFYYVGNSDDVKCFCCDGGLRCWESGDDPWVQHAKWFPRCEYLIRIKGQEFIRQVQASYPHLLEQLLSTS

Chain of XIAP-BIR3 (P98170 241-356): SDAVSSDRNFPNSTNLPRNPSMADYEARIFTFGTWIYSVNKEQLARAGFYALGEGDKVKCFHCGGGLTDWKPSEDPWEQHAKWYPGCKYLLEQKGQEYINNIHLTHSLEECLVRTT
Chain of cIAP2-BIR2 (Q13489 158-242): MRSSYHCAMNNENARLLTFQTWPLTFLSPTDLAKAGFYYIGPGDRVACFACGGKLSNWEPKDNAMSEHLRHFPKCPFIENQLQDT
Chain of cIAP1-BIR3 (Q13490 253-363): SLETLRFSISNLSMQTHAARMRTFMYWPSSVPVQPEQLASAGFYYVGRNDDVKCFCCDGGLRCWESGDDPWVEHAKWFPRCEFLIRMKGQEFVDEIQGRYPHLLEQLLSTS
Chain of cIAP1-BIR2 (Q13490 173-257): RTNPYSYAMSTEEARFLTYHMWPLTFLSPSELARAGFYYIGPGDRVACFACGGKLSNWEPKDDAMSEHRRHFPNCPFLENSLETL

Row | SMILES | IC50 (cIAP1-BIR2) | IC50 (XIAP-BIR3) | IC50 (cIAP1-BIR3) | cIAP1 BIR3 vs BIR2 separation window (cIAP1-BIR3) | IC50 (cIAP2-BIR2) | EC50 [1] | IC50 (cIAP2-BIR3) | cIAP2 BIR3 vs BIR2 separation window (cIAP2-BIR3) | cIAP1 BIR2 (pIC50) (cIAP1-BIR2; FRET competition binding) | XIAP BIR3 (pIC50) (XIAP-BIR3; FRET competition binding) | cIAP1 BIR3 (pIC50) (cIAP1-BIR3; FRET competition binding) | cIAP2 BIR2 (pIC50) (cIAP2-BIR2; FRET competition binding) | Jurkat pEC50 [1] | cIAP2 BIR3 (pIC50) (cIAP2-BIR3; FRET competition binding)
1 | C[C@@H]1CN(CC(=O)N2CC(C)(C)c3[nH]c(=O)c(Cc4ccc(Cl)cc4C(F)(F)F)cc32)[C@@H](CN2CCO[C@H](C(=O)NCc3ccc(CNC(=O)[C@@H]4CN(C[C@H]5CN[C@H](C)CN5CC(=O)N5CC(C)(C)c6[nH]c(=O)c(Cc7ccc(Cl)cc7C(F)(F)F)cc65)CCO4)cc3)C2)CN1 [Compound 170, (2S,2′S)-N,N′-(1,4-phenylenebis(methylene)) bis(4-(((2R,5R)-1-(2-(6-(4-chloro-2-(trifluoromethyl)benzyl)-3,3-dimethyl-5-oxo-2,3,4,5-tetrahydro-1H-pyrrolo[3,2-b]pyridin-1-yl)-2-oxoethyl)-5-methylpiperazin-2-yl)methyl)morpholine-2-carboxamide)] | 3160 to 10000 nM | 15.8 to 31.6 nM | 1.38 to 7.94 nM | +++ (10,000>FS>1,000) | 1000 to 3160 nM | 12.6 to 63.1 nM | 1.38 to 7.94 nM | +++ (10,000>FS>1,000) |  |  |  |  |  | 
2 | C[C@@H]1CN(CC(=O)N2CC(C)(C)c3[nH]c(=O)c(Cc4c(F)c(F)c(F)c(F)c4F)cc32)[C@@H](CN2CCO[C@H](C(=O)NCc3ccc(CNC(=O)[C@@H]4CN(C[C@H]5CN[C@H](C)CN5CC(=O)N5CC(C)(C)c6[nH]c(=O)c(Cc7c(F)c(F)c(F)c(F)c7F)cc65)CCO4)cc3)C2)CN1 [Compound 176, (2S,2′S)-N,N′-(1,4-phenylenebis(methylene)) bis(4-(((2R,5R)-1-(2-(3,3-dimethyl-5-oxo-6-((perfluorophenyl)methyl)-2,3,4,5-tetrahydro-1H-pyrrolo[3,2-b]pyridin-1-yl)-2-oxoethyl)-5-methylpiperazin-2-yl)methyl)morpholine-2-carboxamide)] | 3160 to 10000 nM | 31.6 to 501 nM | 31.6 to 501 nM | ++ (1,000>FS>100) | 3160 to 10000 nM | 0.49 to 12.6 nM | 15.8 to 31.6 nM | +++ (10,000>FS>1,000) |  |  |  |  |  | 
3 | CC(C)c1ccccc1Cc1cc2c([nH]c1=O)C(C)(C)CN2C(=O)CN1C[C@@H](C)NC[C@@H]1CN1CCO[C@H](C(=O)NCc2ccc(CNC(=O)[C@@H]3CN(C[C@H]4CN[C@H](C)CN4CC(=O)N4CC(C)(C)c5[nH]c(=O)c(Cc6ccccc6C(C)C)cc54)CCO3)cc2)C1 [Compound 173, (2S,2′S)-N,N′-(1,4-phenylenebis(methylene)) bis(4-(((2R,5R)-1-(2-(6-(2-isopropylbenzyl)-3,3-dimethyl-5-oxo-2,3,4,5-tetrahydro-1H-pyrrolo[3,2-b]pyridin-1-yl)-2-oxoethyl)-5-methylpiperazin-2-yl)methyl)morpholine-2-carboxamide)] | 10000 to 51300 nM | 31.6 to 501 nM | 31.6 to 501 nM | +++ (10,000>FS>1,000) | 3160 to 10000 nM | 63.1 to 316 nM | 15.8 to 31.6 nM | +++ (10,000>FS>1,000) |  |  |  |  |  | 
4 | C[C@@H]1CN(CC(=O)N2CC(C)(C)c3[nH]c(=O)c(Cc4c(F)cc(F)cc4F)cc32)[C@@H](CN2CCO[C@H](COc3cccc(OC[C@@H]4CN(C[C@H]5CN[C@H](C)CN5CC(=O)N5CC(C)(C)c6[nH]c(=O)c(Cc7c(F)cc(F)cc7F)cc65)CCO4)c3)C2)CN1 [Compound 188] | 1000 to 3160 nM | 15.8 to 31.6 nM | 15.8 to 31.6 nM | +++ (10,000>FS>1,000) | 1000 to 3160 nM | 0.49 to 12.6 nM | 15.8 to 31.6 nM | ++ (1,000>FS>100) |  |  |  |  |  | 
5 | C[C@@H]1CN(CC(=O)N2CC(C)(C)c3[nH]c(=O)c(Cc4ccc(F)cc4)cc32)[C@@H](CN2CCN(CCCCCCCCCCN3CCN(C[C@H]4CN[C@H](C)CN4CC(=O)N4CC(C)(C)c5[nH]c(=O)c(Cc6ccc(F)cc6)cc54)[C@H](C)C3)C[C@H]2C)CN1 [Example 25, 1,1′-(2,2′-((3R,3′R,6R,6′R)-(((2R,2′R)-decane-1,10-diylbis(2-methylpiperazine-4,1-diyl))bis(methylene))bis(3-methylpiperazine-6,1-diyl))bis(acetyl))bis(6-(4-fluorobenzyl)-3,3-dimethyl-1,2,3,4-tetrahydro-5H-pyrrolo[3,2-b]pyridin-5-one)] | 22.4 to 1000 nM | 7.94 to 15.8 nM | 7.94 to 15.8 nM | ++ (1,000>FS>100) | 22.4 to 1000 nM | 12.6 to 63.1 nM | 1.38 to 7.94 nM | +++ (10,000>FS>1,000) |  |  |  |  |  | 
6 | C[C@@H]1CN(CC(=O)N2CC(C)(C)c3[nH]c(=O)c(Cc4ccc(F)c(F)c4F)cc32)[C@@H](CN2CCO[C@H](C(=O)NCc3ccc(CNC(=O)[C@@H]4CN(C[C@H]5CN[C@H](C)CN5CC(=O)N5CC(C)(C)c6[nH]c(=O)c(Cc7ccc(F)c(F)c7F)cc65)CCO4)cc3)C2)CN1 [Compound 178, (2S,2′S)-N,N′-(1,4-phenylenebis(methylene)) bis(4-(((2R,5R)-1-(2-(3,3-dimethyl-5-oxo-6-(2,3,4-trifluorobenzyl)-2,3,4,5-tetrahydro-1H-pyrrolo[3,2-b]pyridin-1-yl)-2-oxoethyl)-5-methylpiperazin-2-yl)methyl)morpholine-2-carboxamide)] | 1000 to 3160 nM | 15.8 to 31.6 nM | 15.8 to 31.6 nM | +++ (10,000>FS>1,000) | 1000 to 3160 nM | 0.49 to 12.6 nM | 7.94 to 15.8 nM | +++ (10,000>FS>1,000) |  |  |  |  |  | 
7 | C[C@@H]1CN(CC(=O)N2CC(C)(C)c3[nH]c(=O)c(Cc4ccc(F)cc4)cc32)[C@@H](CN2CCO[C@H](COc3ccc(Oc4ccc(OC[C@@H]5CN(C[C@H]6CN[C@H](C)CN6CC(=O)N6CC(C)(C)c7[nH]c(=O)c(Cc8ccc(F)cc8)cc76)CCO5)cc4)cc3)C2)CN1 [Example 55, 1,1′-(2,2′-((3R,3′R,6R,6′R)-(((2S,2'S)-(((oxybis(4,1-phenylene))bis(oxy))bis(methylene))bis(morpholine-2,4-diyl))bis(methylene))bis(3-methylpiperazine-6,1-diyl))bis(acetyl))bis(6-(4-fluorobenzyl)-3,3-dimethyl-1,2,3,4-tetrahydro-5H-pyrrolo[3,2-b]pyridin-5-one)] |  |  |  | ++++ (FS>10,000) |  |  |  | ++++ (FS>10,000) | + (4.29<pIC50<=5.00) | ++ (7.80>pIC50>=7.50) | + (7.50>pIC50>=6.30) | + (4.29<pIC50<=5.00) | ++++ (9.31>pEC50>=7.90) | +++ (8.10>pIC50>=7.80)
8 | C[C@@H]1CN(CC(=O)N2CC(C)(C)c3[nH]c(=O)c(Cc4ccc(F)cc4)cc32)[C@@H](CN2CCN(C(=O)COc3ccc(OCC(=O)N4CCN(C[C@H]5CN[C@H](C)CN5CC(=O)N5CC(C)(C)c6[nH]c(=O)c(Cc7ccc(F)cc7)cc65)[C@H](C)C4)cc3)C[C@H]2C)CN1 [Example 13, 1,1′-(2,2′-((3R,3′R,6R,6′R)-(((2R,2′R)-(2,2′-(1,4-phenylenebis(oxy))bis(acetyl))bis(2-methylpiperazine-4,1-diyl))bis(methylene))bis(3-methylpiperazine-6,1-diyl))bis(acetyl))bis(6-(4-fluorobenzyl)-3,3-dimethyl-1,2,3,4-tetrahydro-5H-pyrrolo[3,2-b]pyridin-5-one)] | 22.4 to 1000 nM | 15.8 to 31.6 nM | 15.8 to 31.6 nM |  | 1000 to 3160 nM | 63.1 to 316 nM | 15.8 to 31.6 nM |  |  |  |  |  |  | 
